According to patent US10793522B2, “Sulfonamides as inhibitors of the uptake of extracellular citrate” (Boehringer Ingelheim International GmbH, priority 2016, dated 2020):

target: hSLC13A5 (Homo sapiens, UniProt Q86YT5); assay: Recombinant hSLC13A5/14C-citrate uptake assay; format: cell-based; conditions: HEK293 Flp-In cells over-expressing hSLC13A5; WGA-PVT SPA beads; 14C-citrate approx. 2 μM; 4 h
Source text: (5) Recombinant hSLC13A5/^14C-Citrate Uptake Assay
The human embryonic kidney 293 (HEK 293)-Flp-In cells (293Flp-In-hSLC13A5) over-expressing hSLC13A5 transporter were cloned: The originating plasmid pcDNA3.1-hSLC13A5 containing hSLC13A5 was synthesized at GeneArt. The cDNA for hSLC13A5 was taken from this plasmid by means of PCR amplification using primers with added HindIII (N-terminal) and XhoI (C-terminal) restriction sites and sub-cloned in frame into pcDNA5/FRT from Invitrogen using the respective restriction enzymes. HEK293 Flp-In cells from Invitrogen were stably co-transfected using the pcDNA/FRT-hSLC13A5 plasmid as well as the pOG44 plasmid.
HEK 293-Flp-In cells are used that stably over-express hSLC13A5 transporter which is responsible for the uptake of citrate into these cells.
The uptake of ^14C-citrate into the 293Flp-In-hSLC13A5 cells is monitored using the WGA-PVT SPA (wheat germ agglutinin-polyvinyltoluene scintillation proximity assay) beads that bind to the 293Flp-In cells due to their WGA-PVT surface. This assay format is based on the imported radioactive citrate brought into proximity with the SPA beads by virtue of the biological processes within the cells. The radioactive decay is converted into a light signal that can be measured using e.g. the TopCount plate reader.
Method: ^14C-Citrate Uptake Assay
Test Compound Dilutions (2Fold-Concentrated):
Starting from 10 mM stock solutions in 100% DMSO, compounds are diluted in pure DMSO using the appropriate dilution steps.
Prior to the uptake assay, 200 μL assay medium (lx HBSS (with Ca^2+ and Mg^2+, w/o Phenolred), contains 5.56 mM D(+)-Glucose)+19.44 mM D(+)-Glucose (final concentration of D(+)-Glucose is 25 mM))+4.8 μL compound solution (or pure DMSO for non-inhibited control wells) are mixed (final DMSO concentration in the assay: 1% (v/v)).
After preparing the 2fold-concentrated test compound dilutions, 50 μL are pipetted to each well of white OptiPlates-96 and incubated at 37° C. in an incubator.
^14C-Citrate Working Solution (Volumes Required Per 96-Well):
The 293Flp-In-hSLC13A5 cells are cultivated in cell culture medium (DMEM+10% fetal calf serum+100 μg/mL Hygromycin B). The medium of the confluent cultures is discarded and the cells are washed with DPBS (w/o Mg^2+ w/o Ca^2+). The cells are detached by the addition of 2.0 mL Accumax per 75 cm^2 culture flask for up to 3 minutes at 37° C. and resuspended in 10 mL assay medium. After cell counting, 50,000 cells/well are administered in a volume of 50 μL into the white OptiPlates-96 containing the respective test compound concentrations. Following a 20 min incubation at 37° C. in the cell culture incubator, 20 μL of ^14C-citrate working solution is added to each well (final volume per well: 120 μL; final ^14C-citrate concentration: approx. 2 μM/well).
After incubation for 4 h at 37° C. in a humid cell culture incubator and the addition of 30 μL of WGA-PVT SPA beads to each well (0.25 mg/well), the plates are sealed on the top using a transparent plastic foil. Incubate the plates for 1 h by room temperature and gentle shaking.
After incubation, the plate is placed into the TopCount NXT HTS and the signal is recorded.
The performance of the test compounds is calculated as follows:
Wells containing cells incubated with 1% DMSO only deliver values for the non-inhibited ^14C-citrate uptake into 293Flp-In-hSLC13A5 cells (100% CTL). Wells containing cells which have received 30 mM non-labelled potassium citrate solution in addition to the ^14C-citrate working solution deliver values for the background (0% CTL).
The IC50 values of the compounds are calculated in IDBS XLfit by sigmoidal dose-response (variable slope).

Chain of hSLC13A5 (Q86YT5 whole entry): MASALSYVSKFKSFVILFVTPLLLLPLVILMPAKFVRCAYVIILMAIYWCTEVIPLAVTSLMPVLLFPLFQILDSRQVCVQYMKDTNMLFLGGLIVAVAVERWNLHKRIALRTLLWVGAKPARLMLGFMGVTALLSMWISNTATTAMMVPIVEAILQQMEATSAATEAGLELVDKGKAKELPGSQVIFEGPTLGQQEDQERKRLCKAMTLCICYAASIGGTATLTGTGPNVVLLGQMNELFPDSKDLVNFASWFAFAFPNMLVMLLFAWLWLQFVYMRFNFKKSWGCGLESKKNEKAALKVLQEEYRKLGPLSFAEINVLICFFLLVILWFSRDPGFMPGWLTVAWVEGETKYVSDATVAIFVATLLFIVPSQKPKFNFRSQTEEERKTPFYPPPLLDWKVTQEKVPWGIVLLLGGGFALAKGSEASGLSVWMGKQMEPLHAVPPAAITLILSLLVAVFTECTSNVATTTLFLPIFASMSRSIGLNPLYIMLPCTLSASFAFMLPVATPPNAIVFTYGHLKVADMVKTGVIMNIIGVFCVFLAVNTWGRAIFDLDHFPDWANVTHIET

Structure (SMILES)	IC50
O=C(NCc1ccccn1)C1CCN(S(=O)(=O)c2cc(Cl)cc(Cl)c2)CC1 [(I-11)]	687 nM
Cc1ccc(CNC(=O)C2CCN(S(=O)(=O)c3cc(Cl)cc(Cl)c3)CC2)nc1 [(I-15)]	193 nM
O=C(NCc1ccc(F)cn1)C1CCN(S(=O)(=O)c2cc(Cl)cc(Cl)c2)CC1 [(I-20)]	392 nM
Cc1cnc(CNC(=O)C2CCN(S(=O)(=O)c3cc(Cl)cc(Cl)c3)CC2)s1 [(I-27)]	341 nM
Cc1cc(Br)cc(S(=O)(=O)N2CCC(C(=O)NCc3ccccn3)CC2)c1 [(I-61)]	437 nM

The next compounds have a lower IC50 than those just listed; values first:

IC50	Structure (SMILES)
154 nM	CCOc1cc(Cl)cc(S(=O)(=O)N2CCC(C(=O)NCc3nccs3)CC2)c1 [(I-49)]
87 nM	O=C(NCc1ccccc1F)C1CCN(S(=O)(=O)c2cc(Cl)cc(Cl)c2)CC1 [(I-2)]
79 nM	N#Cc1ccc(CNC(=O)C2CCN(S(=O)(=O)c3cc(Cl)cc(Cl)c3)CC2)cc1 [Example (I-1)]
56 nM	O=C(NCc1ccc(Cl)cc1)C1CCN(S(=O)(=O)c2cc(Cl)cc(Cl)c2)CC1 [(I-5)]
56 nM	O=C(NCc1ccc(F)cc1)C1CCN(S(=O)(=O)c2cc(Cl)cc(Cl)c2)CC1 [(I-10)]
